Experiments:
[1] = system: MCF7MX cells; assay: SRB cell viability assay in MCF7MX cells (ABCG2 overexpressing); type: cell-based, human; settings: for GI50: Homo sapiens, MCF7/MX, 72 h, SRB
Description: Cell viability by the sulforhodamine B (SRB) assay was used to assess cell growth and cytotoxicity of test compounds [29]. Cells were seeded at densities of 3,500 to 5,000 cells per well in 96 well plates overnight and pre-treated for 1 h with ABC transporter modulators: 10 μM fumitremorgin C (FTC; in MCF7MX and MCF7 cells), or 0.3 μM of zosuquidar (in 3T3 and 3T3-MDR1). Cells were then treated with test compounds for 72 h, at 37°C. After drug treatment, cells were fixed by addition of 50% trichloroacetic acid (TCA), and the plates washed and dried to allow staining with 0.4% solution of sulforhodamine B (Sigma) in 1% acetic acid for 30 minutes. Excess dye was removed upon washing with 1% acetic acid. Plates were dried and bound protein was solubilised upon addition of 150 μL of 10 mM Tris base buffer. Absorbance was measured at 540 nm using Thermo Multiskan-Ex plate reader. Cell viability versus compound concentration curves were plotted as a percentage of control cells. The concentration of drug that gave 50% inhibition in cell growth (GI50) was extrapolated from these curves using the sigmoid curve fit with variable slope in Prism (GraphPad Prism version 5.01, GraphPad Software, San Diego California USA). Three to six replicate wells were used for each drug concentration and experiments were carried out on three separate occasions for each compound.

[2] = Caco2 transwell assay; type: in vitro ADME, human; settings: human, Caco-2, with verapamil 10 mg/mL, pre-treatment for 1 h, pre-treatment with 10 mg/mL verapamil for 1 h; read-out: efflux ratio in the presence of verapamil
Description: The caco2 transwell assay was performed to assess permeability. Cells were seeded at a density of 60,000 cells per well in 24 well transwell plates (Millipore, Billerica, Massachutsetts, USA), and maintained in DMEM supplemented with […] glucose (20% FBS, 1% penicillin/streptomycin, 1% glutamine) for 21 days at 37°C in 5% CO2. After 21 days the cells differentiate into enterocytes and express all three MDR proteins, ABCB1 and ABCG2 at the apical side and ABCC1 on the basal side. On day 21, cells were washed three times with Hank's Balanced Salt Solution (HBSS) (Fisher scientific, Loughborough, UK) and the trans-epithelial electric resistance (TERR) was measured using an Epithelial Voltohmmeter (EVOM) (World Precision Instruments, Sarasota, USA); only transwells with TERR of 400 Ω/cm^2 or above were used for the experiment. Cells were treated either at the apical (n = 3) or basal (n = 3) side of the transwell by addition of 10 μM of cyanoquinoline compound or 50 μM vinblastine prepared in a volume of 400 μL HBSS (compound added to apical well) or 800 μL of HBSS (added to basal well). When transport inhibitors FTC (10 μM) or zosuquidar (0.3 μM) were used, they were added to both the apical and basal wells 1 h prior to drug treatment. After 1 h pre-treatment the medium was removed and cells were treated with the compounds prepared in HBSS containing FTC or Zosuquidar.
Plates were incubated in shaker incubator at 37°C and 60 rpm for 120 min. After incubation, 200 μL aliquots from the apical and the basal wells were collected and analysed using high performance liquid chromatography (HPLC). Samples were run on a Millipore Waters HPLC system which included a 717 plus autosampler and 2487 dual wavelength absorbance detector system. The stationary phase comprised of a Phenomenex Luna C18 reverse phase column (150 X 4.6 mm; 5 μm particle size). The mobile phase comprised water (0.1% TFA) and acetonitrile (0.1% TFA) (80:20 v/v) at a flow rate of 1 mL/min for all compounds except vinblastine. For vinblastine, the stationary phase comprised a Supelcosil LC-ABZ reverse phase column (5 × 4.6 mm; 5 μm particle size). The mobile phase comprised water (0.1% formic acid) and methanol (90:10 to 10:90 v/v gradient over 20 min). Peak areas corresponding to the compounds of interest were recorded. Using standard curves the areas under the curve were converted into concentrations of compound. The permeability coefficient (Papp) was calculated using the following equation [30]: Papp = (dQ/dt)/A C0, where A is the surface area of the transwell membrane in cm^2 (= 0.33 cm^2), C0 is the drug concentration in the donor chamber at time t = 0 and dQ/dt is the rate of transfer of the compound to the receiver chamber, determined from the slope of the graph concentration (dQ) versus time (dt). Papp values corresponding to absorption and secretion were assessed and used to calculate efflux ratio. Efflux ratio =(Papp B−A)/(Papp A−B) Where Papp A-B = Papp absorption and Papp B-A = Papp secretion.
The integrity of the caco2 cell membrane was assessed for each well following the experiment by addition of a 100 μM solution of […] (Sigma) in HBSS to the apical side of the plate. The plates were placed in the shaker incubator for 1 h at 37°C and 60 rpm. Samples from the basal wells were transferred into a 96 well plate and the levels of […] were assessed by measuring with an excitation of 450 nm and an emission of 540 nm using the PerkinElmer Wallac 1420 counter.

[3] = biological target: T1, EGFR Del E746-A750/T790M (PC9ER cells) (Homo sapiens, UniProt P00533, DEL746-750/T790M); assay: Inhibition of EGFR autophosphorylation (p-EGFR Y1068, western blot) in PC9ER cells; type: cell-based
T1 construct: endogenous in cells; host or cells: PC9ER (Dr Olivier Pardo, Imperial College London)
T1 sequence (P00533 with tags, fused parts or gaps DEL746-750/T790M): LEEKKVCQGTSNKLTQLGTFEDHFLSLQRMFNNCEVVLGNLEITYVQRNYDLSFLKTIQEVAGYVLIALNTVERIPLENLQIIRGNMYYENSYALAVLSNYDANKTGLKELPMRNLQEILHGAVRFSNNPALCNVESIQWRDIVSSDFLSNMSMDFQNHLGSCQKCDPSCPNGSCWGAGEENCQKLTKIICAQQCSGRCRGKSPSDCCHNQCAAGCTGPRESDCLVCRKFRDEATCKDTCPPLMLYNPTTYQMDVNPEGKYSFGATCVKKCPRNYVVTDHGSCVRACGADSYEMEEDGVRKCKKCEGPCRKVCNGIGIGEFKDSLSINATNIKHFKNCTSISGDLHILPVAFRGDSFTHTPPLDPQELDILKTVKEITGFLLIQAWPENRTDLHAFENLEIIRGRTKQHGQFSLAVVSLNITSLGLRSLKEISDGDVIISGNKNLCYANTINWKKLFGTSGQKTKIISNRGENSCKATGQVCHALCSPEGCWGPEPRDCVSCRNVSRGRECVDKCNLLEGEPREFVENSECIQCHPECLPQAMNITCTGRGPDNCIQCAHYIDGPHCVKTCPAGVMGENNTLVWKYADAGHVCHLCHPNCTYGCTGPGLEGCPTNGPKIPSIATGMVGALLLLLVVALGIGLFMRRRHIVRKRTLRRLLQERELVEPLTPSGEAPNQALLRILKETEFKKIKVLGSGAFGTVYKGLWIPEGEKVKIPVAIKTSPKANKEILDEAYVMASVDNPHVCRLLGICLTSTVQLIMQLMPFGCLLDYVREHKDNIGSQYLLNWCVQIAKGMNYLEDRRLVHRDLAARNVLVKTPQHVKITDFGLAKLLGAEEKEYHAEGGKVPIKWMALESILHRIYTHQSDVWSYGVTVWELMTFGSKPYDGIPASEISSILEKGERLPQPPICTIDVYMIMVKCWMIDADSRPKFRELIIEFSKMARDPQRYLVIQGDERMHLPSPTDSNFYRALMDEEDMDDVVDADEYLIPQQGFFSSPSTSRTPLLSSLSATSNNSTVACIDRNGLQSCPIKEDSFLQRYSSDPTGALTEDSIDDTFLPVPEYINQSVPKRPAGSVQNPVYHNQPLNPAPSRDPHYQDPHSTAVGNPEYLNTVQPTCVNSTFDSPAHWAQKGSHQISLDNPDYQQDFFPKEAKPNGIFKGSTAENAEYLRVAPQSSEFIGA
Description: (§1) Affinity of the cyanoquinolines for EGFR was established by measuring their inhibition of EGFR autophosphorylation via western blot. Cells were seeded in 6 well plates and following 24 h of growth, were subject to overnight serum starvation. The cells were then treated with increasing concentrations of cyanoquinolines prepared in serum free growth media from a DMSO stock (final DMSO concentration < 1%) for 3 h at 37°C, and stimulated for receptor autophosphorylation by addition of 100 ng/mL of EGF during the last 15 minutes of drug incubation. After 3 h the cells were placed on ice, media removed and then the cells were washed two times with ice cold phosphate buffered saline (PBS). Lysates were analysed by western blot to measure changes to p-EGFR Y1068.
(§2) Cells were collected into a microcentrifuge tube and sonicated for 30 seconds on ice. Cellular protein levels were assessed using a bicinchoninic acid (BCA) protein assay kit according to the manufacturer’s instructions (Thermo scientific). […] Samples were transferred to polyvinylidene difluoride (PVDF) membrane using Trans-Blot Turbo system BIO-RAD (Hercules, California, USA). […] The membranes were then incubated overnight with primary antibody prepared in 1% milk or 1% BSA in TBST. […] Membranes were washed a further three times for 10 minutes with TBST. Blots were visualised using chemoluminescence (ECL, GE Healthcare, Little Chalfont, UK) and developed on Amersham Hyperfilm ECL (GE Healthcare). β-Actin was used as a loading control.

[4] = biological target: T2, EGFR L858R/T790M (H1975 cells) (Homo sapiens, UniProt P00533, L858R/T790M); assay: Inhibition of EGFR autophosphorylation (p-EGFR Y1068, western blot) in H1975 cells; type: cell-based; settings: 3 h incubation, EGF stimulated
T2 construct: host or cells: H1975
T2 sequence (P00533 25-1210 T790M/L858R): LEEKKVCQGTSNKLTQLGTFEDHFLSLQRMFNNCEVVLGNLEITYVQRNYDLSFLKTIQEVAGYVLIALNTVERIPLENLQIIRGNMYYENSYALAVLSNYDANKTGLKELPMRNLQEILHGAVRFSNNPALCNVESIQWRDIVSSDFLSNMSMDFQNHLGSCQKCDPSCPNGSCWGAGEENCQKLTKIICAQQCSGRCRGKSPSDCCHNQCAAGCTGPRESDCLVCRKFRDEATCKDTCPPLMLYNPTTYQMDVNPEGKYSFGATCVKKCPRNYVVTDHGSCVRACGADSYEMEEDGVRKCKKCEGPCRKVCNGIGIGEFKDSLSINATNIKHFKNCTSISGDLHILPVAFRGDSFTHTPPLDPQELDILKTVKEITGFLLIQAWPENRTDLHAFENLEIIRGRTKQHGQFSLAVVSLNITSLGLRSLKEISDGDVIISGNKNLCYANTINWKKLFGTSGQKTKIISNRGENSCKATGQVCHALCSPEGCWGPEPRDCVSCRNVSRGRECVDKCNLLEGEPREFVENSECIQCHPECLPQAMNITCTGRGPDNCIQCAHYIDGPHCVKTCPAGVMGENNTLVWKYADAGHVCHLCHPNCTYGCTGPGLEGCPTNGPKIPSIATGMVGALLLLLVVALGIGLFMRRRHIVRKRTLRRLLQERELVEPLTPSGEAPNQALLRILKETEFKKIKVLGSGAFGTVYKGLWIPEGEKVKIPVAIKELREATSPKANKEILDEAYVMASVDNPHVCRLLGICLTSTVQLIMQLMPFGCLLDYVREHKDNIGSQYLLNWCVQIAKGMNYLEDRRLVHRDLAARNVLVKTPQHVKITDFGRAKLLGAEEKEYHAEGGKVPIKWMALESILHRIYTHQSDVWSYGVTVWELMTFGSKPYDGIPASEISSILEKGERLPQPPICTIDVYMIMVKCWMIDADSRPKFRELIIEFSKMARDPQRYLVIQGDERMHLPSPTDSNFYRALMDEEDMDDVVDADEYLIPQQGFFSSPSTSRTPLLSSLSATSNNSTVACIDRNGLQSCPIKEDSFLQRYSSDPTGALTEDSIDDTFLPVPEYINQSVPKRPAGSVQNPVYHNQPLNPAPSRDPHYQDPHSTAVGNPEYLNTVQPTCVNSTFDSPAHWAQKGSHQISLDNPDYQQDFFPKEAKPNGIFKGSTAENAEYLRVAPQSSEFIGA
Description: as §1
as §2, with “Blots were visualised using chemoluminescence (ECL, GE Healthcare, Little Chalfont, UK) and developed on Amersham Hyperfilm ECL (GE Healthcare). β-Actin was used as a loading control.” left out

fold increase in GI50 in the ABCG2 overexpressing cell line ([1]; GI50 MCF7MX over GI50 MCF7, without FTC): 6.3 fold
GI50 ([1]; 1 h pre-treatment with 10 μM FTC): 37.9 ± 21.9 µM
GI50 ([1]; without FTC): 75.9 ± 43.8 µM
efflux ratio at 120 min, 10 μM [2]: 1.1
IC50 ([3]; 3 h incubation, EGF stimulated): 0.045 µM
fold higher IC50 (p-EGFR) in PC9ER compared to PC9 ([3]; PC9ER versus isogenic PC9): 2 fold
IC50 [4]: > 1 µM
Structure (SMILES): CCOc1cc2ncc(C#N)c(Nc3ccc(F)c(Cl)c3)c2cc1NC(=O)/C=C/CNCc1cn(CCF)nn1 [FED6, (2E)-N-{4-[(3-chloro-4-fluorophenyl)amino]-3-cyano-7-ethoxyquinolin-6-yl}-4-({[1-(2-fluoroethyl)-1H-1,2,3-triazol-4-yl]methyl}amino)-but-2-enamide]

Source: PMC4995014, “Identification of ABC Transporter Interaction of a Novel Cyanoquinoline Radiotracer and Implications for Tumour Imaging by Positron Emission Tomography” (PLoS ONE, 2016)
